Several values for one entry are separate records, joined by “and”; a condition that tells them apart may be missing. Equal values may be shown once. Read-outs that look alike come from different tables or passages of the source.
What was measured:
[1] = test system: SkBr3 cells; assay: SRB cell viability assay, lapatinib-sensitive SkBr3 cells; assay type: cell-based, human; details: for mean A at 565 nm: no chemosensitizing pre-treatment, background = 0.047
Method: Cell culture of the above cell lines was performed as described in Example 2, except that 5,000, rather than 3,000 cells were plated per well for the K562, K562/Dox, BT474, SkBr3 lines.
Table 17 also contains the serially-diluted concentrations of drugs that each cell line was tested against.
FIG. 13 summarizes the data of Tables 32-33 in a graphical format.

[2] = test system: PC3-TxR cells; assay: SRB cell viability assay, docetaxel-resistant PC3-TxR cells; details: Homo sapiens
Method: The CE is expressed as: CE=IC50D/IC50E+D. IC50D is the IC50 of the chemotherapeutic drug against which an test extract (or other compound suspected of having a CE) is evaluated. IC50E+D is the IC50 of the combination of the test extract and chemotherapeutic drug. The CE of a test extract or compound can vary depending on the type of cell and the specific chemotherapeutic or class or combination of therapeutics that are being evaluated.
The variance between those concentrations can be quantitated by calculating the Chemosensitizing Utility Index (CUI) value for a test extract or compound. The CUI is expressed as: CUI=CE×(IC50E/ConE). […] ConE is the concentration of an extract or compound that is required to produce desirable CE.
CE and CUI values were obtained individually for the aqueous, ethanol, and chloroform extracts that are described above. […] In the Examples, the ethanol, is referred to as Lei Gong Teng extract (LGT-E).
PC3-TxR cells were plated into sterile, F-bottom Cellstar® 96 well cell culture plates with lids (Cat #655180, Purchased from Greiner Bio-one, Monroe, N.C.) by placing into each well, 100 μl of medium containing 3000 cells in RPMI 1640 supplemented with 10% fetal bovine serum (Thermo Scientific, Logan, Utah) and a solution of penicillin (100 U/ml) and streptomycin (100 μg/ml) (Life Technologies Grand Island, N.Y.). The cells were at passage 52 at the time of plating. Triplicate wells were assigned to each experimental condition tested, and a 24 hour recovery period for the cells following the seeding of the wells was allowed. During the recovery period, the cells were incubated at 37° C. and 5% CO2.
The LGT-E was prepared by adding an appropriate amount of LGT-E powder to DMSO to form a 500 mg/ml stock solution. The stock solution was alternately vortexed and sonicated until the LGT-E powder went into solution. The stock solution was diluted in RPMI 1640 medium (Mediatech, Manassas, Va., or Life Technologies Grand Island, NY) to reach the desired concentrations of LGT-E (e.g., 12, 25, or 60 μg/ml).
Pretreatment of the cells with LGT-E was carried out by aspirating the media from the wells, followed by adding 50 μl of LGT-E solution containing concentrations of either 12 or 25 μg/ml of LGT-E solution and incubation of the cells for two hours under conditions of 37° C. and 5% CO2.
Media was aspirated from each well, and replaced with a 10% solution of cold trichloroacetic acid (TCA) (Cat #: T6399, purchased from Sigma-Aldrich), and incubated for one hour at 4° C. After the TCA incubation, the TCA solution was aspirated, and the cells were washed five times with tap water. After removing the last wash, the plates were left with lids off at room temperature until the surfaces were dry, which took one to two hours. Then 50 μl of a 0.4% solution of sul-forhodamine B (SRB) sodium salt (Cat #: S9012, purchased from Sigma-Aldrich) was added to each well and the plates were incubated at room temperature for 20 to 30 minutes. Afterwards, the wells were washed five times with a 1% acetic acid solution in 10 mM TRIS base (Cat#: 161-0719, purchased from Bio-Rad Laboratories, Hercules, Calif.). The plates were subsequently left to dry for several hours or overnight. SRB that remained in the dried wells was solubilized by adding 100 μl of SRB solubilization solution (10 mM TRIS base) to each well, and placing the plates either on a gently-moving shaker or letting the plates remain stationary at room temperature until the SRB dissolves, which takes about five to ten minutes. The amount of SRB in each well, which correlated directly to the number of living cells at fixation, was determined spectrophotometrically at an absorbance of 565 nm by a microplate reader.

Question: CS(=O)(=O)CCNCc1ccc(-c2ccc3ncnc(Nc4ccc(OCc5cccc(F)c5)c(Cl)c4)c3c2)o1 [lapatinib] was tested. Which IC50 ([1]; Homo sapiens, SK-BR-3, read-out: IC50 of drug when cells treated with drug only) did it give?
Answer: The IC50 was 241 nM and 0.14 µg/mL.

Question: And the “mean A at 565 nm” value ([1]; Lapatinib 0.001 μM)?
Answer: The value was 2.203.

Question: And the “mean A at 565 nm” value ([1]; Lapatinib 0.067 μM)?
Answer: Its value is 1.707.

Question: And the “mean A at 565 nm” value ([1]; Lapatinib 0.2 μM)?
Answer: The value was 1.314.

Question: What about the “mean A at 565 nm” value ([1]; Lapatinib 0.67 μM) of the same compound?
Answer: Its value is 0.708.

Question: What about the “mean A at 565 nm” value ([1]; Lapatinib 2 μM) of the same compound?
Answer: The value was 0.347.

Question: And the “mean A at 565 nm” value ([1]; Lapatinib 6.7 μM)?
Answer: The value was 0.211.

Question: And the “mean A at 565 nm” value ([1]; Lapatinib 20 μM)?
Answer: Its value is 0.221.

Question: What does the source list for CC(=O)O[C@@]12CO[C@@H]1C[C@H](O)[C@@]1(C)C(=O)[C@H](O)C3=C(C)[C@@H](OC(=O)[C@H](O)[C@@H](NC(=O)OC(C)(C)C)c4ccccc4)C[C@@](O)([C@@H](OC(=O)c4ccccc4)[C@H]21)C3(C)C [Docetaxel, docetaxel]?
Answer: viability at 1 pM ([2]; read-out: % viable, PC3-TxR, LGT-E 12 μg/ml pre-treatment, docetaxel 0.001 nM 72 h): 100%; viability at 0.0001 µM ([2]; read-out: % viable, PC3-TxR, LGT-E 12 μg/ml pre-treatment, docetaxel 0.1 nM 72 h): 105%; viability at 0.000333 µM ([2]; read-out: % viable, PC3-TxR, LGT-E 12 μg/ml pre-treatment, docetaxel 0.333 nM 72 h): 103%; viability at 0.001 µM ([2]; read-out: % viable, PC3-TxR, LGT-E 12 μg/ml pre-treatment, docetaxel 1 nM 72 h): 97.8%; viability at 0.00333 µM ([2]; read-out: % viable, PC3-TxR, LGT-E 12 μg/ml pre-treatment, docetaxel 3.33 nM 72 h): 62.4%; viability at 0.01 µM ([2]; read-out: % viable, PC3-TxR, LGT-E 12 μg/ml pre-treatment, docetaxel 10 nM 72 h): 21.2%; viability at 0.0333 µM ([2]; read-out: % viable, PC3-TxR, LGT-E 12 μg/ml pre-treatment, docetaxel 33.3 nM 72 h): 7%; viability at 0.1 µM ([2]; read-out: % viable, PC3-TxR, LGT-E 12 μg/ml pre-treatment, docetaxel 100 nM 72 h): 4.1%; viability at 1 pM ([2]; read-out: % viable, PC3-TxR, LGT-E 25 μg/ml pre-treatment, docetaxel 0.001 nM 72 h): 100%; viability at 0.0001 µM ([2]; read-out: % viable, PC3-TxR, LGT-E 25 μg/ml pre-treatment, docetaxel 0.1 nM 72 h): 99.9%; viability at 0.000333 µM ([2]; read-out: % viable, PC3-TxR, LGT-E 25 μg/ml pre-treatment, docetaxel 0.333 nM 72 h): 99.1%; viability at 0.001 µM ([2]; read-out: % viable, PC3-TxR, LGT-E 25 μg/ml pre-treatment, docetaxel 1 nM 72 h): 82.5%; viability at 0.00333 µM ([2]; read-out: % viable, PC3-TxR, LGT-E 25 μg/ml pre-treatment, docetaxel 3.33 nM 72 h): 34.6%; viability at 0.01 µM ([2]; read-out: % viable, PC3-TxR, LGT-E 25 μg/ml pre-treatment, docetaxel 10 nM 72 h): 9.4%; viability at 0.0333 µM ([2]; read-out: % viable, PC3-TxR, LGT-E 25 μg/ml pre-treatment, docetaxel 33.3 nM 72 h): 4.9%; viability at 0.1 µM ([2]; read-out: % viable, PC3-TxR, LGT-E 25 μg/ml pre-treatment, docetaxel 100 nM 72 h): 4.7%; viability at 1 pM ([2]; read-out: % viable, PC3-TxR, no LGT-E pre-treatment (Table 2), docetaxel 0.001 nM 72 h): 100%; viability at 0.0001 µM ([2]; read-out: % viable, PC3-TxR, no LGT-E pre-treatment (Table 2), docetaxel 0.1 nM 72 h): 98.5%; viability at 0.000333 µM ([2]; read-out: % viable, PC3-TxR, no LGT-E pre-treatment (Table 2), docetaxel 0.333 nM 72 h): 100%; viability at 0.001 µM ([2]; read-out: % viable, PC3-TxR, no LGT-E pre-treatment (Table 2), docetaxel 1 nM 72 h): 105%; viability at 0.01 µM ([2]; read-out: % viable, PC3-TxR, no LGT-E pre-treatment (Table 2), docetaxel 10 nM 72 h): 77%; viability at 0.0333 µM ([2]; read-out: % viable, PC3-TxR, no LGT-E pre-treatment (Table 2), docetaxel 33.3 nM 72 h): 29.7%; viability at 0.1 µM ([2]; read-out: % viable, PC3-TxR, no LGT-E pre-treatment (Table 2), docetaxel 100 nM 72 h): 11.3%; viability at 1 pM ([2]; read-out: % viable, PC3-TxR, no LGT-E pre-treatment (Table 4), docetaxel 0.001 nM 72 h): 100%; viability at 0.0001 µM ([2]; read-out: % viable, PC3-TxR, no LGT-E pre-treatment (Table 4), docetaxel 0.1 nM 72 h): 98.7%; viability at 0.000333 µM ([2]; read-out: % viable, PC3-TxR, no LGT-E pre-treatment (Table 4), docetaxel 0.333 nM 72 h): 99.9%; viability at 0.001 µM ([2]; read-out: % viable, PC3-TxR, no LGT-E pre-treatment (Table 4), docetaxel 1 nM 72 h): 99.2%; viability at 0.00333 µM ([2]; read-out: % viable, PC3-TxR, no LGT-E pre-treatment (Table 4), docetaxel 3.33 nM 72 h): 98.5%; viability at 0.01 µM ([2]; read-out: % viable, PC3-TxR, no LGT-E pre-treatment (Table 4), docetaxel 10 nM 72 h): 76.7%; viability at 0.0333 µM ([2]; read-out: % viable, PC3-TxR, no LGT-E pre-treatment (Table 4), docetaxel 33.3 nM 72 h): 32.9%; viability at 0.1 µM ([2]; read-out: % viable, PC3-TxR, no LGT-E pre-treatment (Table 4), docetaxel 100 nM 72 h): 13.4%; viability at 1 pM ([2]; read-out: % viable, PC3-TxR, no LGT-E pre-treatment (Table 11, Example 4), docetaxel 0.001 nM 72 h): 100%; viability at 0.0001 µM ([2]; read-out: % viable, PC3-TxR, no LGT-E pre-treatment (Table 11, Example 4), docetaxel 0.1 nM 72 h): 98.7%; viability at 0.000333 µM ([2]; read-out: % viable, PC3-TxR, no LGT-E pre-treatment (Table 11, Example 4), docetaxel 0.333 nM 72 h): 99.9%; viability at 0.001 µM ([2]; read-out: % viable, PC3-TxR, no LGT-E pre-treatment (Table 11, Example 4), docetaxel 1 nM 72 h): 99.2%; viability at 0.00333 µM ([2]; read-out: % viable, PC3-TxR, no LGT-E pre-treatment (Table 11, Example 4), docetaxel 3.33 nM 72 h): 98.5%; viability at 0.01 µM ([2]; read-out: % viable, PC3-TxR, no LGT-E pre-treatment (Table 11, Example 4), docetaxel 10 nM 72 h): 76.7%; viability at 0.0333 µM ([2]; read-out: % viable, PC3-TxR, no LGT-E pre-treatment (Table 11, Example 4), docetaxel 33.3 nM 72 h): 32.9%; viability at 0.1 µM ([2]; read-out: % viable, PC3-TxR, no LGT-E pre-treatment (Table 11, Example 4), docetaxel 100 nM 72 h): 13.4%; IC50 ([2]; read-out: IC50 of drug when cells pre-treated with Chemosensitizing Agent before drug treatment, docetaxel, LGT-E 25 μg/ml pre-treatment): 2.19 nM and 0.00177 µg/mL; IC50 ([2]; read-out: IC50 of drug when cells treated with drug only, docetaxel, line of LGT-E 25 μg/ml): 18.3 nM and 0.0148 µg/mL
